The structures appear in SMILES notation. Bounds are passed on as bounds.

In assay [1] the target is GST-tagged Tankyrase-2 (873-1166 aa) (Homo sapiens, UniProt Q9H2K2). Briefly: biochemical. An excerpt:
(§1) aq (aqueous), h (hour), g (gram), L (liter), mg (milligram), MHz (Megahertz), min. (minute), mm (millimeter), mmol (millimole), mM (millimolar), m.p. (melting point), eq (equivalent), mL (milliliter), L (microliter), ACN (acetonitrile), AcOH (acetic acid), CDCl3 (deuterated chloroform), CD3OD (deuterated methanol), CH3CN (acetonitrile), c-hex (cyclohexane), DCC (dicyclohexyl carbodiimide), DCM (dichloromethane), DIC (diisopropyl carbodiimide), DIEA (diisopropylethyl-amine), DMF (dimethylformamide), DMSO (dimethylsulfoxide), DMSO-d6 (deuterated dimethylsulfoxide), EDC (1-(3-dimethyl-amino-propyl)-3-ethylcarbodiimide), ESI (Electro-spray ionization), EtOAc (ethyl acetate), Et2O (diethyl ether), EtOH (ethanol), HATU (dimethylamino-([1,2,3]triazolo[4,5-b]pyridin-3-yloxy)-methylene]-dimethylammonium hexafluorophosphate), HPLC (High Performance Liquid Chromatography), i-PrOH (2-propanol), K2CO3 (potassium carbonate), LC (Liquid Chromatography), MeOH (methanol), MgSO4 (magnesium sulfate), MS (mass spectrometry), MTBE (Methyl tert-butyl ether), NaHCO3 (sodium bicarbonate), NaBH4 (sodium borohydride), NMM (N-methyl morpholine), NMR (Nuclear Magnetic Resonance), PyBOP (benzotriazole-1-yl-oxy-trispyrrolidino-phosphonium hexafluorophosphate), RT (room temperature), Rt (retention time), SPE (solid phase extraction), TBTU (2-(1-H-benzotriazole-1-yl)-1,1,3,3-tetramethyluromium tetrafluoro borate), TEA (triethylamine), TFA (trifluoroacetic acid), THF (tetrahydrofuran), TLC (Thin Layer Chromatography), UV (Ultraviolet). Description of the In Vitro Assays Abbreviations: GST=Glutathione-S-transferase FRET=Fluorescence resonance energy transfer HTRF®=(homogenous time resolved fluorescence) HEPES=4-(2-hydroxyethyl)-1-piperazine ethanesulfonic acid buffer DTT=Dithiothreitol BSA=bovine serum albumin CHAPS=detergent; CHAPS=3[(3-cholamidopropyl)dimethylammonio]-1-propanesulfonate Streptavidin-XLent® is a high grade streptavidin-XL665 conjugate for which the coupling conditions have been optimized to yield a conjugate with enhanced performances for some assays, particularly those requiring high sensitivity.
(§2) The autoparsylation assay is run in two steps: the enzymatic reaction in which GST-tagged Tankyrase-1, resp Tankyrase-2 transferred biotinylated ADP-ribose to itself from biotinylated NAD as co-substrate and the detection reaction where a time resolved FRET between cryptate labelled anti-GST bound to the GST tag of the enzyme and Xlent® labelled-streptavidin bound the biotin-parsylation residue is analysed. The autoparsylation activity was detectable directly via the increase in HTRF signal.
(§3) The autoparsylation assay is performed as 384-well HTRF® (Cisbio, Codolet, France) assay format in Greiner low volume nb 384-well microtiter plates and is used for high throughput screen. […] The reaction is stopped by the addition of 1 μl 50 mM EDTA solution. […] The ratio of the emission signals is determined. The full value used is the inhibitor-free reaction. […] The inhibitory values (IC50) are determined using either the program Symyx Assay Explorer® or Condosseo® from GeneData.

The target in assay [2] is T1, GST-tagged Tankyrase-1 (1023-1327 aa) (Homo sapiens, UniProt O95271).
T1 construct: GST-tagged Tankyrase-1 (1023-1327 aa)
T1 sequence (O95271 1023-1327): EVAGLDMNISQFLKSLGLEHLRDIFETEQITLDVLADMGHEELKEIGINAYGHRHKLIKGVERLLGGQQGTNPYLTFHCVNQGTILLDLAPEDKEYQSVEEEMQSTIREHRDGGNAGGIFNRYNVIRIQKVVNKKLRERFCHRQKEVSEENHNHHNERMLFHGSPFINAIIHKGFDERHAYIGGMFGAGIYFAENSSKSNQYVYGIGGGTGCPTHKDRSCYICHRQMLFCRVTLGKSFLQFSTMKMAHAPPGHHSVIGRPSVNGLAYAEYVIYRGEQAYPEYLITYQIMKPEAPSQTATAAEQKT
Briefly: biochemical. The note with it: read-out: IC50 tankyrase 1 (enzyme assay).
Text: as §1, §2, §3

In a further assay the target is T2, His-tagged Parp-1 (Homo sapiens, UniProt P09874).
T2 construct: purchased Enzo Life Sciences GmbH, Lörrach, Germany
T2 sequence (P09874 whole entry): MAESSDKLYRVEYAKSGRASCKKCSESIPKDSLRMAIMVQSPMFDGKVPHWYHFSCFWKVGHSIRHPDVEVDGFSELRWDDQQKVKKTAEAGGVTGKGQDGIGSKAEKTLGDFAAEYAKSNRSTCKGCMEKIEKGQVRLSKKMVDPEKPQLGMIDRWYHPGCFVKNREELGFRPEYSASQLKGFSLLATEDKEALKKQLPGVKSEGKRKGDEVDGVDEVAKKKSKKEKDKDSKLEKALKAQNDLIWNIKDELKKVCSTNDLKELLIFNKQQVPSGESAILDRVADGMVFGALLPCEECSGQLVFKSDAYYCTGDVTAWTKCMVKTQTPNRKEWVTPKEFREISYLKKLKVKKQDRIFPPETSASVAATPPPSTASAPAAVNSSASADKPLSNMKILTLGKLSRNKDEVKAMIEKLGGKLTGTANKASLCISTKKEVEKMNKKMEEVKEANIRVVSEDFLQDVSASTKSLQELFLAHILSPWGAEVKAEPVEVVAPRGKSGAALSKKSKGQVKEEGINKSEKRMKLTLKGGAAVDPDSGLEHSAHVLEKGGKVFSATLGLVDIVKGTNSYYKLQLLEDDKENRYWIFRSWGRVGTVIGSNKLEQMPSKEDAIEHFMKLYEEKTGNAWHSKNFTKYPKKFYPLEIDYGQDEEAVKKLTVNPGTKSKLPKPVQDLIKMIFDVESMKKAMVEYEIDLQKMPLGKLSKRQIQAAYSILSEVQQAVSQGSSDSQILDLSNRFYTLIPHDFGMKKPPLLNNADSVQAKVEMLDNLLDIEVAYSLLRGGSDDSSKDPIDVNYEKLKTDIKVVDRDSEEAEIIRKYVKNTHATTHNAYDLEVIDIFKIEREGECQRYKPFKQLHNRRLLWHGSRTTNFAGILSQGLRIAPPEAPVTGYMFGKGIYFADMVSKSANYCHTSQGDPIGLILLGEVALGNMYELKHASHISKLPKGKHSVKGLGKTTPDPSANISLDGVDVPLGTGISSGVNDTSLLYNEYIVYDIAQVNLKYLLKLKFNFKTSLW
Briefly: PARP-1 autoparsylation assay (HTRF). The class given is biochemical. An excerpt:
Description of the PARP1 Assay
Biochemical Activity Testing of PARP-1: Autoparsylation Assay
The autoparsylation assay is run in two steps: the enzymatic reaction in which His-tagged Parp-1 transfers biotinylated ADP-ribose/ADP-ribose to itself from biotinylated NAD/NAD as co-substrate and the detection reaction where a time resolved FRET between cryptate labelled anti-His antibody bound to the His tag of the enzyme and Xlent® labelled-streptavidin bound the biotin-parsylation residue is analysed. The autoparsylation activity is detectable directly via the increase in HTRF signal.
The autoparsylation assay is performed as 384-well HTRF® (Cisbio, Codolet, France) assay format in Greiner low volume nb 384-well microtiter plates. 35 nM His-tagged Parp-1 (human, recombinant, Enzo Life Sciences GmbH, Lörrach, Germany) and a mixture of 125 nM bio-NAD (Biolog, Life science Inst., Bremen, Germany) and 800 nM NAD as co-substrate are incubated in a total volume of 6 μl (100 mM Tris/HCl, 4 mM Mg-chloride, 0.01% IGEPAL® CA630, 1 mM DTT, 0.5% DMSO, pH 8, 13 ng/μl activated DNA (BPS Bioscience, San Diego, US)) in the absence or presence of the test compound (10 dilution concentrations) for 150 min at 23° C. The reaction is stopped by the addition of 4 μl of the Stop/detection solution (70 nM SA-Xlent® (Cisbio, Codolet, France), 2.5 nM Anti-His-K® (Eu-labelled anti-His, Cisbio, Codolet, France) in 50 mM HEPES, 400 mM KF, 0.1% BSA, 20 mM EDTA, pH 7.0). After 1 h incubation at room temperature the HTRF iss measured with an Envision multimode reader (Perkin Elmer LAS Germany GmbH) at excitation wavelength 340 nm (laser mode) and emission wavelengths 615 nm and 665 nm. The ratio of the emission signals is determined. The full value used is the inhibitor-free reaction. The pharmacological zero value used is Olaparib (LClabs, Woburn, US) in a final concentration of 1 The inhibitory values (IC50) are determined using either the program Symyx Assay Explorer® or Condosseo® from GeneData.
For orientation: Time-resolved FRET reads energy transfer from a long-lived donor to a nearby acceptor.

Sequence of GST-tagged Tankyrase-2 (873-1166 aa) (Q9H2K2 873-1166): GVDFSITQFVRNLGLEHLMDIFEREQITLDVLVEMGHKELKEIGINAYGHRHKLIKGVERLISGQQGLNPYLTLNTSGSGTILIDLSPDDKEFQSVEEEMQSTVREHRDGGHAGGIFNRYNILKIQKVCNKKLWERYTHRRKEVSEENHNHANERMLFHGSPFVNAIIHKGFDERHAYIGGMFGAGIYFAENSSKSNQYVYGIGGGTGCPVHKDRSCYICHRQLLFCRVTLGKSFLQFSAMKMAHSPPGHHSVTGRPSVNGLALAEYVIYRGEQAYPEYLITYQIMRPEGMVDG

`CCC(O)(CC)c1ccc(-c2nc3ccc(F)cc3c(=O)[nH]2)cc1` [Compound A14, 2-[4-(1-ethyl-1-hydroxy-propyl)phenyl]-6-fluoro-3H-quinazolin-4-one]: the IC50 (in general, the concentration needed to halve the response being measured) was 300 to 3000 nM in assay [1], under 300 nM in assay [2] and 300 to 3000 nM on His-tagged Parp-1.
On to `O=c1[nH]c(-c2ccc(C3(O)CCCC3)cc2)nc2ccc(F)cc12` [Compound A16, 6-fluoro-2-[4-(1-hydroxycyclopentyl)phenyl]-3H-quinazolin-4-one], for which the values for the half-maximal inhibitory concentration (IC50) (in assay [1]; in assay [2]; on His-tagged Parp-1) were 300 to 3000 nM, under 300 nM and 300 to 3000 nM, respectively.
Turning to `CC(C)(O)c1ccc(-c2nc3c(F)cc(F)c(F)c3c(=O)[nH]2)cc1` [Compound A26, 5,6,8-trifluoro-2-[4-(1-hydroxy-1-methyl-ethyl)-phenyl]-3H-quinazolin-4-one], the IC50 was 300 to 3000 nM in assay [1], under 300 nM in assay [2] and 300 to 3000 nM on His-tagged Parp-1.
Consider `Cc1cc(F)cc2c(=O)[nH]c(-c3ccc(N4CCC(O)CC4)cc3)nc12` [Compound A29, 6-fluoro-2-[4-(4-hydroxy-piperidin-1-yl)-phenyl]-8-methyl-3H-quinazolin-4-one], for which the IC50 in assay [1] was 300 to 3000 nM; in assay [2], 300 to 3000 nM; on His-tagged Parp-1, under 300 nM.
As to `Cc1cc(F)cc2c(=O)[nH]c(-c3ccc(N4CCC(CO)CC4)cc3)nc12` [Compound A31, 6-fluoro-2-[4-(4-hydroxymethyl-piperidin-1-yl)-phenyl]-8-methyl-3H-quinazolin-4-one], the IC50 (in assay [1]; in assay [2]; against His-tagged Parp-1) was 300 to 3000 nM in each case.

Source of the values: patent publication US9388142B2, “Quinazolinone derivatives as PARP inhibitors” (MERCK PATENT GMBH, priority 2012, dated 2016).
